Bounds are passed on as bounds.

Series [1] concerns the target T1, 5-HT4 receptor (UniProt Q13639).
T1 construct: Human 5-HT4(d) transfected HEK293 cells were prepared and grown in-house
The series can be described thus: 5-HT4 receptor binding ([3H]-GR113808 displacement). How it is done: The 5-HT4 receptor binding affinities of the compounds of this invention are determined by the following procedures. […]
Human 5-HT4(d) transfected HEK293 cells were prepared and grown in-house. The collected cells were suspended in 50 mM HEPES (pH 7.4 at 4° C.) supplemented with protease inhibitor cocktail (Boehringer, 1:1000 dilution) and homogenized using a hand held Polytron PT 1200 disruptor set at full power for 30 sec on ice. The homogenates were centrifuged at 40,000×g at 4° C. for 30 min. The pellets were then resuspended in 50 mM HEPES (pH 7.4 at 4° C.) and centrifuged once more in the same manner. The final pellets were resuspended in an appropriate volume of 50 mM HEPES (pH 7.4 at 25° C.), homogenized, aliquoted and stored at −80° C. until use. An aliquot of membrane fractions was used for protein concentration determination using BCA protein assay kit (PIERCE) and ARVOsx plate reader (Wallac).
For the binding experiments, 25 μl of test compounds were incubated with 25 μl of [^3H]-GR113808 (Amersham, final 0.2 nM) and 150 μl of membrane homogenate and WGA-SPA beads (Amersham) suspension solutions (10 μg protein and 1 mg SPA beads/well) for 60 minutes at room temperature. Nonspecific binding was determined by 1 μM GR113808 (Tocris) at the final concentration. Incubation was terminated by centrifugation at 1000 rpm. Receptor-bound radioactivity was quantified by counting with MicroBeta plate counter (Wallac).

Series [2] has as its target T2, HERG potassium channel (Homo sapiens, UniProt Q12809).
T2 construct: expressed in transfected cells; host or cells: HEK293S
The series can be described thus: Human dofetilide binding ([3H]-dofetilide, HERG transfected HEK293S cell membranes). As to conditions: for TI (Defetilide/5HT4): TI = Dofetilide Binding Ki [μM] / 5HT4 Binding Ki [nM] × 1000; for Ki: [3H]-dofetilide 5 nM, human HERG transfected HEK293S membranes. The procedure:
Inhibitory activity at HERG channel was estimated from affinity for HERG type potassium channel was investigated by checking [^3H]dofetilide binding, which can predict inhibitory activity at HERG channel (Eur. J. Pharmacol., 430, pp 147–148, 2001). Selected compounds with low [^3H]dofetilide binding activity were evaluated in IHERG assay to check activity at HERG channel. Introducing a branched chain group to nitrogen atom in piperidine ring contributed to potent 5-HT4 receptor agonist activities with reduced inhibitory activity at HERG channel. The compounds of the present invention may show less toxicity, good absorption, distribution and less drug-drug interaction, and have metabolic stability.
Human HERG transfected HEK293S cells were prepared and grown in-house. The collected cells were suspended in 50 mM Tris-HCl (pH 7.4 at 4° C.) and homogenized using a hand held Polytron PT 1200 disruptor set at full power for 20 sec on ice. The homogenates were centrifuged at 48,000×g at 4° C. for 20 min. The pellets were then resuspended, homogenized, and centrifuged once more in the same manner. The final pellets were resuspended in an appropriate volume of 50 mM Tris-HCl, 10 mM KCl, 1 mM MgCl2 (pH 7.4 at 4° C.), homogenized, aliquoted and stored at −80° C. until use. An aliquot of membrane fractions was used for protein concentration determination using BCA protein assay kit (PIERCE) and ARVOsx plate reader (Wallac).
Binding assays were conducted in a total volume of 200 μl in 96-well plates. Twenty μl of test compounds were incubated with 20 μl of [^3H]-dofetilide (Amersham, final 5 nM) and 160 μl of membrane homogenate (25 μg protein) for 60 minutes at room temperature. Nonspecific binding was determined by 10 μM dofetilide at the final concentration. Incubation was terminated by rapid vacuum filtration over 0.5% presoaked GF/B Betaplate filter using Skatron cell harvester with 50 mM Tris-HCl, 10 mM KCl, 1 mM MgCl2, pH 7.4 at 4° C. The filters were dried, put into sample bags and filled with Betaplate Scint. Radioactivity bound to filter was counted with Wallac Betaplate counter.

T2 sequence (Q12809 whole entry): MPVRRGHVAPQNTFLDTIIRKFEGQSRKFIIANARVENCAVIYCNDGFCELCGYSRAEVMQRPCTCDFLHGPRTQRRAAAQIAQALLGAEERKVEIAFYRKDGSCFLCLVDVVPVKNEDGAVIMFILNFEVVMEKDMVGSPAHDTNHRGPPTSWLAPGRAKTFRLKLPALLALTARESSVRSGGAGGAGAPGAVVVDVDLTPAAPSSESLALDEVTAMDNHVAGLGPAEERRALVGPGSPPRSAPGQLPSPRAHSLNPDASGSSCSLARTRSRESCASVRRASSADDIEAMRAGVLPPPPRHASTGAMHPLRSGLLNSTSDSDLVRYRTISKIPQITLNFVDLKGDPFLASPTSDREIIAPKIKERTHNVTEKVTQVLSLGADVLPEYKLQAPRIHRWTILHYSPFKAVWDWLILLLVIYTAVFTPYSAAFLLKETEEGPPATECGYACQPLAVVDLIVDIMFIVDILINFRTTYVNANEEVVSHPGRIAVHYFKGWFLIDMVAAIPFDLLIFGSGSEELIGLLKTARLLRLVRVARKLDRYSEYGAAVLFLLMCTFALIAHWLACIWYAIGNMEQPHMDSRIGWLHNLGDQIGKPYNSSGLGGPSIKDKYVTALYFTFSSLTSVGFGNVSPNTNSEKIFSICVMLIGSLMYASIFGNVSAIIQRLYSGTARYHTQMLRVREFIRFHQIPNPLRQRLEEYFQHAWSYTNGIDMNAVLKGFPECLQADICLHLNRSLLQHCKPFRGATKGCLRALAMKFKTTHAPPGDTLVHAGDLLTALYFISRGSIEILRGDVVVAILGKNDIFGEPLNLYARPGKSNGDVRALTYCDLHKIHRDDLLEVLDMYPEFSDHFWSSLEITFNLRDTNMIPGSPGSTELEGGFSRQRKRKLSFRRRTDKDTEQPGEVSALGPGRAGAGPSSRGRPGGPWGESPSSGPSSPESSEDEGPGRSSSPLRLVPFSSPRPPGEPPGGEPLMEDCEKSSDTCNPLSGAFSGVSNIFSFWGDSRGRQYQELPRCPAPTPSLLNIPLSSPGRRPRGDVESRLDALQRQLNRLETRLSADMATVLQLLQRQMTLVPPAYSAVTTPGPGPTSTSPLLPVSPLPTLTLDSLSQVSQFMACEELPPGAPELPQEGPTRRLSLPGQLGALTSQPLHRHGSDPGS

One may read the Ki as the dissociation constant of the complex between target and ligand, obtained from inhibition or displacement. High values mean lower affinity, low ones higher affinity. `CCCCN1CCC(CNC(=O)c2cc(Cl)c(N)n3cc(C)nc23)CC1` [Compound A, reference compound] had a Ki in series [1] of 1.2 nM. For the same molecule, in series [2], the “TI (Defetilide/5HT4)” value is on record as 1,900 and the Ki was found to be 2300 nM.
`COCCCN1CCC(CNC(=O)c2cc(Cl)c(N)n3cc(C)nc23)CC1` [Compound B, reference compound]: the affinity in series [1] corresponds to a Ki of 4.6 nM. For the same molecule, in series [2], the “TI (Defetilide/5HT4)” value is listed as 1,300 and the Ki was found to be 6000 nM.
What is called melting point is the temperature of the solid-liquid transition. `Cc1cn2c(N)c(Cl)cc(C(=O)NCC3CCN(CC(C)C)CC3)c2n1` [Example 1, 5-Amino-6-chloro-N-[(1-isobutylpiperidin-4-yl)methyl]-2-methylimidazo[1,2-a]pyridine-8-carboxamide] gave a melting point of 216 to 219 °C. This molecule also showed a Ki in series [1] of 0.82 nM. For the same molecule, in series [2], the “TI (Defetilide/5HT4)” value is recorded as 7,000 and the Ki stood at 5750 nM.
`Cc1cn2c(N)ccc(C(=O)NCC3CCN(CC(C)C)CC3)c2n1` [Example 2, 5-Amino-N-[(1-isobutylpiperidi-4-yl)methyl]-2-methylimidazo[1,2-a]pyridine-8-carboxamide]: the Ki in series [1] worked out at 3.1 nM. For the same molecule, in series [2], the “TI (Defetilide/5HT4)” value was 7,800 and the Ki was 24100 nM.
`CCc1cn2c(N)c(Cl)cc(C(=O)NCC3CCN(CCC(C)(C)C)CC3)c2n1` [Example 3, 5-Amino-6-chloro-N-{[1-(3,3-dimethylbutyl)piperidin-4-yl]methyl}-2-ethylimidazo[1,2-a]pyridine-8-carboxamide] displayed a melting point of 234 °C. Moreover, affinity in series [1] was put at a Ki of 0.77 nM. In addition, in series [2], the “TI (Defetilide/5HT4)” value was 5,000 and the Ki came out at 3870 nM.
`CCc1cn2c(N)c(Cl)cc(C(=O)NCC3CCN(CC(C)(C)OC)CC3)c2n1` [Example 4, 5-Amino-6-chloro-2-ethyl-N-{[1-(2-methoxy-2-methylpropyl)piperidin-4-yl]methyl}imidazo[1,2-a]pyridine-8-carboxamide] registered a melting point of 211 °C. Also, the Ki in series [1] stood at 1.2 nM. In series [2], this molecule showed a Ki of 22300 nM.
The like results for `COC(C)(C)CN1CCC(CNC(=O)c2cc(Cl)c(N)n3cc(C)nc23)CC1` [Example 5, 5-Amino-6-chloro-2-methyl-N-{[1-(2-methoxy-2-methylpropyl)piperidin-4-yl]methyl}imidazo[1,2-a]pyridine-8-carboxamide] were, in that order, 211 °C, 2 nM and over 24000 nM.
With `COC(C)(C)CCN1CCC(CNC(=O)c2cc(Cl)c(N)n3cc(C)nc23)CC1` [Example 8, 5-Amino-6-chloro-N-{[1-(3-methoxy-3-methylbutyl)piperidin-4-yl]methyl}2-methylimidazo[1,2-a]pyridine-8-carboxamide], the melting point is 199 °C.
Same read-out and setting: with `COCC(C)(C)CN1CCC(CNC(=O)c2cc(Cl)c(N)n3cc(C)nc23)CC1` [Example 9, 5-amino-6-chloro-N-{[1-(3-methoxy-2,2-dimethylpropyl)piperidin-4-yl]methyl}2-methylimidazo[1,2-a]pyridine-8-carboxamide] the figure was 199 °C.

The values above are taken from patent US7012080B2, “Imidazopyridine compounds as 5-HT4 receptor agonists” (Pfizer Inc., priority 2002, dated 2006).
